Measurements taken from article PMC10687071 (The Journal of Biological Chemistry, 2023).
Changes are numbered by the printed parent chain.

What was measured:
[1] = target: T1, Y71R mutant EAG1 channels (Mus musculus, UniProt Q60603, Y71R); experiment: TEVC recording, imipramine inhibition, Y71R mutant; type: cell-based; details: Y71R mutant EAG1 channel, +50 mV
T1 construct: expressed in transfected cells; host or cells: Xenopus laevis oocytes injected with cRNA
T1 sequence (Q60603 1-989 Y71R): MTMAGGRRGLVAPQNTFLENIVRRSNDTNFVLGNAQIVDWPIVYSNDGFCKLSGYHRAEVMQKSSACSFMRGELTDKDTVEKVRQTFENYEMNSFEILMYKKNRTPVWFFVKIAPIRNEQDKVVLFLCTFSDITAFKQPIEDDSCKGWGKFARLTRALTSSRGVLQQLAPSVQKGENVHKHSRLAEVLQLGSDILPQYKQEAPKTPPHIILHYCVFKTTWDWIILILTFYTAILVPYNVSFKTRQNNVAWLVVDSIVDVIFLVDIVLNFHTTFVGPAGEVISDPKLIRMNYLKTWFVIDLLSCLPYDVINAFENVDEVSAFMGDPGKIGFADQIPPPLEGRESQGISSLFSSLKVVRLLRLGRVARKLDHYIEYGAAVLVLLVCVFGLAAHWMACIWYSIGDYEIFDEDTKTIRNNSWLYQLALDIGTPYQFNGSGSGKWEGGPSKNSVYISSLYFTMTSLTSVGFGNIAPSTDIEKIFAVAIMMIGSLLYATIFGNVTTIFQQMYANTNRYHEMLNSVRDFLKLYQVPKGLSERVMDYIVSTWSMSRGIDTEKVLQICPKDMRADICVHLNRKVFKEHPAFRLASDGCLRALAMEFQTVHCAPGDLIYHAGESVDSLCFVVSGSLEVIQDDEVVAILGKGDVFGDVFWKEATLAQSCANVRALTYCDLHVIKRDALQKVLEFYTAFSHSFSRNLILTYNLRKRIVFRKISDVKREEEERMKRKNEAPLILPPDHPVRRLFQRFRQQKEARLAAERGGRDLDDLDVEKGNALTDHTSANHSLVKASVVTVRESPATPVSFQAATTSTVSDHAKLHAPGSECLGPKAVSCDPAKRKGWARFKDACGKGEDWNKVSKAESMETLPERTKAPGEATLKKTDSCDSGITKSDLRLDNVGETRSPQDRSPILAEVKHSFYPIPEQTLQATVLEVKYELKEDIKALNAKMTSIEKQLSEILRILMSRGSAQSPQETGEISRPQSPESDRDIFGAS
Text: (§1) The cDNA encoding wild-type (WT) mouse EAG1 channels in pGH19 vector was kindly provided by G. Robertson (University of Wisconsin-Madison, Madison, WI). The mutant ΔPAS EAG1 channel in pGH19 with the deletion of the PAS domain residues 2 to 130 was generated by Bio Basic Inc and verified by DNA sequencing (Genewiz). Mutant EAG1 channels with single amino acid substitutions were generated by Genewiz and verified by DNA sequencing. cRNA was transcribed using the T7 mMessage mMachine kit (Thermo Fisher Scientific). Defolliculated Xenopus laevis oocytes were purchased from Ecocyte Bioscience or Xenopus1 and injected with the cRNA using a Nanoinject II oocyte injector (Drummond).
(§2) For EAG1 current recordings, oocytes were placed into a handmade chamber containing a bath solution for the current recording. The currents were recorded using a TEVC technique with OC-725C amplifier (Warner Instruments) and pClamp11 software (Molecular Devices). The signals were digitized using Digidata 1550 (Molecular Devices). Patch pipettes were pulled from borosilicate glass and had resistances of 0.7 to 1.5 MΩ. The recording (bath) solution contained 96 mM NaCl, 4 mM KCl, 0.1 mM CaCl2, 1.8 mM MgCl2, and 5 mM HEPES, pH 7.5. The pipette solution contained 3 M KCl. […]

[2] = target: T2, R84G mutant EAG1 channels (Mus musculus, UniProt Q60603, R84G); experiment: TEVC recording, imipramine inhibition, R84G mutant; type: cell-based; details: R84G mutant EAG1 channel, +50 mV
T2 construct: expressed in transfected cells; host or cells: Xenopus laevis oocytes injected with cRNA
T2 sequence (Q60603 1-989 R84G): T1 sequence (Q60603 1-989 Y71R) with R71Y, R84G
Text: as §1, §2

CN(C)CCCN1c2ccccc2CCc2ccccc21 [imipramine]
IC50 [1]: 43.4 ± 7.5 µM
IC50 [2]: 92.6 ± 2.7 µM
